In patent US20210198277A1, “AMINE-SUBSTITUTED ARYL OR HETEROARYL COMPOUNDS” (Epizyme, Inc., priority 2016, published 2021):

Each molecule was assayed against T1, EHMT2 (Homo sapiens, UniProt Q96KQ7) (assay: MDA-MB-231 H3K9me2 in-cell Western assay (EHMT2 ICW)). Details: H3K9me2 in-cell Western, MDA-MB-231 cells; read-out: EHMT2 ICW (IC50 μM).
T1 construct: host or cells: MDA-MB-231
T1 sequence (Q96KQ7 1-1210): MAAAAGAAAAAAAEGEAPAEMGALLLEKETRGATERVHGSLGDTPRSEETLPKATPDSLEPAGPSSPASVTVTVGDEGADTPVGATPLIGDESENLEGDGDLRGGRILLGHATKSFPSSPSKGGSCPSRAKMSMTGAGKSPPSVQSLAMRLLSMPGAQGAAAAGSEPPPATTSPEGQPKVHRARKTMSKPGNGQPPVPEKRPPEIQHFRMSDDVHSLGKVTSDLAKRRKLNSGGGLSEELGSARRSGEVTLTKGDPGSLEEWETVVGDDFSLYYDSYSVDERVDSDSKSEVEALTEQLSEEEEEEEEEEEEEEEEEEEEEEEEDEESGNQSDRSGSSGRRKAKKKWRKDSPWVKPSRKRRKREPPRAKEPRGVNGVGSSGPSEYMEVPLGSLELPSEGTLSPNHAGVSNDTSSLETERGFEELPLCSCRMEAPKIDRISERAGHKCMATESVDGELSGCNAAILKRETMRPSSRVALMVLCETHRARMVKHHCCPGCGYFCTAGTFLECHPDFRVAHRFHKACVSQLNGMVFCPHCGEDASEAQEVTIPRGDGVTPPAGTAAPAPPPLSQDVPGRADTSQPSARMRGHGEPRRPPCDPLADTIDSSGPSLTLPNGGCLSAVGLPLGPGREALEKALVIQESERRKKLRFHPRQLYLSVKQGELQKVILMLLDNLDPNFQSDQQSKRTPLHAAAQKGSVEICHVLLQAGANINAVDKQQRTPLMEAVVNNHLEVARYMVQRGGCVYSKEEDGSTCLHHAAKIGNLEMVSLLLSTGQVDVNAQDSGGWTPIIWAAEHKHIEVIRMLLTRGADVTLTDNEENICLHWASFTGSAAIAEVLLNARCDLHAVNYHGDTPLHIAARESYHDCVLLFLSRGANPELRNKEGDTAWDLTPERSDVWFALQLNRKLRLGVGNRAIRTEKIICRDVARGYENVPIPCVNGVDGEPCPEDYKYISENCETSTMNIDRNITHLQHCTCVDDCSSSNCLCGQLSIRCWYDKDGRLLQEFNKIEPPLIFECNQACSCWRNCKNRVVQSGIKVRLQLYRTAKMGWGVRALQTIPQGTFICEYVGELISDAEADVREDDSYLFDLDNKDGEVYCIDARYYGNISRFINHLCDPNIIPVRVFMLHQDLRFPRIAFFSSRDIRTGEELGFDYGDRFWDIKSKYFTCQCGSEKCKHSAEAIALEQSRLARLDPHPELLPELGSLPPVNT
Assay type: cell-based
In short: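 MDA-MB-231 cells (3,000/well) seeded onto compound, kept 30 min at room temperature, then 48 h at 37 °C, 5% CO2. IC50 from triplicate wells, four-parameter fit.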
For `CNc1cc(C)nc(Nc2ccc(OC)c(OC[C@@H]3CCN(C4CC4)C3)c2)n1` (single isomer, unassigned) [Compound 481], the IC50 was < 0.1 µM.
`CNc1cc(C)nc(Nc2ccc(OC)c(OC[C@H]3CCN(C4CC4)C3)c2)n1` (single isomer, unassigned) [Compound 482] gave an IC50 of 1 to 10 µM.
With `CNc1ccnc(Nc2ccc(OC)c(OCCOC3CC3)c2)n1` [Compound 453, N^2-(3-(2-cyclopropoxyethoxy)-4-methoxyphenyl)-N^4-methylpyrimidine-2,4-diamine] the IC50 was > 10 µM.
For `CNc1cc(C)nc(Nc2ccc(OC)c(OC3CCN(C)CC3)c2)n1` [Compound 455], the IC50 was > 10 µM.
For `CNc1cc(C)nc(Nc2ccc(OC)c(OCC3CCN(C4CCCC4)C3)c2)n1` (stereo not shown) [Compound 456, N^2-(3-((1-cyclopentylpyrrolidin-3-yl)methoxy)-4-methoxyphenyl)-N^4,6-dimethylpyrimidine-2,4-diamine], the IC50 was > 10 µM.
`CNc1cc(C)nc(Nc2ccc(OC)c(OCC3CCN(C4CC4)C3)c2)n1` (stereo not shown) [Compound 457] was tested, and the IC50 was < 0.1 µM.
For `CNc1cc(C2CCCC2)nc(Nc2ccc(OC)c(OCCCN3CCCC3)c2)n1` [Compound 458, 6-cyclopentyl-N^2-(4-methoxy-3-(3-(pyrrolidin-1-yl)propoxy)phenyl)-N^4-methylpyrimidine-2,4-diamine], the IC50 was 1 to 10 µM.
In the case of `CNc1cc(C2CCOCC2)nc(Nc2ccc(OC)c(OCCCN3CCCC3)c2)n1` [Compound 459, N^2-(4-methoxy-3-(3-(pyrrolidin-1-yl)propoxy)phenyl)-N^4-methyl-6-(tetrahydro-2H-pyran-4-yl)pyrimidine-2,4-diamine], the IC50 is reported as > 10 µM.
For `COc1cnc(Nc2nc(C)cc3[nH]ncc23)cc1OCCCN1CCCC1` [Compound 460, N-(5-methoxy-4-(3-(pyrrolidin-1-yl)propoxy)pyridine-2-yl)-6-methyl-1H-pyrazolo[4,3-c]pyridine-4-amine], the IC50 was 0.1 to 1 µM.
Molecule `CNc1cc(C)nc(Nc2ccc(OC)c(OCC3CCN(CCO)C3)c2)n1` (stereo not shown) [Compound 461, 2-(3-((2-methoxy-5-((4-methyl-6-(methylamino)pyrimidin-2-yl)amino)phenoxy)methyl)pyrrolidin-1-yl)ethan-1-ol] has an IC50 of 0.1 to 1 µM.
Molecule `COc1ccc(Nc2nc(C)cc(NCC3CCOCC3)n2)cc1OCC1CCN(C2CC2)C1` (stereo not shown) [Compound 462, N^2-(3-((1-cyclopropylpyrrolidin-3-yl)methoxy)-4-methoxyphenyl)-6-methyl-N^4-((tetrahydro-2H-pyran-4-yl)methyl)pyrimidine-2,4-diamine] has an IC50 of 0.1 to 1 µM.
In the case of `CNc1cc(C)nc(Nc2ccc(OC)c(OCCCN(C)C3CC3)c2)n1` [Compound 463, N^2-(3-(3-(cyclopropyl(methyl)amino)propoxy)-4-methoxyphenyl)-N^4,6-dimethylpyrimidine-2,4-diamine], the IC50 is reported as 0.1 to 1 µM.
Work on `COc1cnc(Nc2cc(NCC3CCOCC3)cc(C)n2)cc1OCCCN1CCCC1` [Compound 464, N^2-(5-methoxy-4-(3-(pyrrolidin-1-yl)propoxy)pyridin-2-yl)-6-methyl-N^4-((tetrahydro-2H-pyran-4-yl)methyl)pyridine-2,4-diamine] yielded an IC50 of 1 to 10 µM.
`CNc1cc(C)nc(Nc2ccc(OC)c(OCCCN3CC(O)C3)c2)n1` [Compound 465, 1-(3-(2-methoxy-5-((4-methyl-6-(methylamino)pyrimidin-2-yl)amino)phenoxy)propyl)azetidin-3-ol] showed an IC50 of 0.1 to 1 µM.
With `CNc1cc(C)nc(Nc2ccc(OC)c(OC3CCN(C4CC4)CC3)c2)n1` [Compound 466, N^2-(3-((1-cyclopropylpiperidin-4-yl)oxy)-4-methoxyphenyl)-N^4,6-dimethylpyrimidine-2,4-diamine] the IC50 was > 10 µM.
For `CNc1cc(C)nc(Nc2ccc(OC)c(OC[C@H]3C[C@@H](N(C)C)C3)c2)n1` [Compound 468], the IC50 was 1 to 10 µM.
`CNc1cc(C)nc(Nc2ccc(OC)c(OC[C@H]3C[C@H](N(C)C)C3)c2)n1` [Compound 470] was tested, and the IC50 was > 10 µM.
For `CCn1nc(Nc2nccc3[nH]ccc23)cc1COCCN1CCCC1` [Compound 471], the IC50 was > 10 µM.
In the case of `CNc1cc(Nc2cc(OC[C@@H]3CCN(C)C3)c(OC)cn2)nc(C)n1` [Compound 473], the IC50 is reported as 1 to 10 µM.
`CNc1cc(C)nc(Nc2cc(OC[C@@H]3CCN(C)C3)c(OC)cn2)c1` [Compound 475] gave an IC50 of 0.1 to 1 µM.
`CNc1ccnc(Nc2ccc(OC)c(OC[C@@H]3CN(C)C[C@@H]3C)c2)n1` [Compound 477] gave an IC50 of 1 to 10 µM.
For `CNc1ccnc(Nc2ccc(OC)c(OCc3nnc(C4CC4)[nH]3)c2)n1` [Compound 478], the IC50 was > 10 µM.
`CNc1ccnc(Nc2ccc(OC)c(OCc3ncn(C4CC4)n3)c2)n1` [Compound 480] was tested, and the IC50 was > 10 µM.
`CNc1cc(C(C)C)nc(Nc2ccc(OC)c(OCCCN3CCCC3)c2)n1` [Compound 483] showed an IC50 of 0.1 to 1 µM.
In the case of `COc1cnc(Nc2nc(C)cc3[nH]c(C)cc23)cc1OCCCN1CCCC1` [Compound 485], the IC50 is reported as 0.1 to 1 µM.
`COc1ccc(Nc2nc(C)cc3[nH]ccc23)cc1OCCCN1CCCC1` [Compound 486] was tested, and the IC50 was > 10 µM.
Work on `CNc1cc(C)nc(Nc2ccc(OC)c([C@H]3C[C@@H]3CN(C)C)c2)n1` [Compound 487] yielded an IC50 of 1 to 10 µM.
`CNc1cc(C)nc(Nc2ccc(OC)c([C@H]3C[C@H]3CN(C)C)c2)n1` [Compound 488] was tested, and the IC50 was 0.1 to 1 µM.
Work on `CNc1cc(C)nc(Nc2ccc(OC)c(OC(C#N)CCN3CCCC3)c2)n1` (stereo not shown) [Compound 489] yielded an IC50 of 1 to 10 µM.
For `CNc1cc(C)nc(Nc2ccc(OC)c(OCCCN3CCC3)c2)n1` [Compound 490], the IC50 was < 0.1 µM.
`CNc1cc(C)nc(Nc2ccc(OC)c(OC[C@@H]3CN(C)C[C@H]3O)c2)n1` [Compound 491] showed an IC50 of 1 to 10 µM.
In the case of `CNc1cc(C)nc(Nc2ccc(OC)c(OC[C@@H]3CN(C)C[C@@H]3O)c2)n1` [Compound 492], the IC50 is reported as 0.1 to 1 µM.
For `COc1cnc(Nc2nc(C)cc3[nH]ccc23)cc1OCC1CCN(C2CC2)C1` (stereo not shown) [Compound 494], the IC50 was < 0.1 µM.
For `COc1cnc(Nc2nc(C)cc3[nH]ccc23)cc1OC[C@H]1CCN(C2CC2)C1` [Compound 494a], the IC50 was 0.1 to 1 µM.
In the case of `COc1cnc(Nc2nc(C)cc3[nH]ccc23)cc1OC[C@@H]1CCN(C2CC2)C1` [Compound 495], the IC50 is reported as 0.1 to 1 µM.
For `CNc1cc(C)nc(Nc2cc(Cl)c(OC)c(OCCCN3CCCC3)c2)n1` [Compound 496], the IC50 was 1 to 10 µM.
`CCc1ccc(Nc2nc(C)cc(NC)n2)cc1OCCCN1CCCC1` [Compound 497] was tested, and the IC50 was 0.1 to 1 µM.
With `CNc1cc(C)nc(Nc2ccc(OC)c(OCCCN3CCC4(CC4)C3)c2)n1` [Compound 498, N^2-(3-(3-(5-azaspiro[2.4]heptan-5-yl)propoxy)-4-methoxyphenyl)-N^4,6-dimethylpyrimidine-2,4-diamine] the IC50 was 1 to 10 µM.
Molecule `CNc1cc(C)nc(Nc2ccc(OC)c(OCCCCN(C)C)c2)n1` [Compound 502] has an IC50 of 1 to 10 µM.
`CNc1cc(C)nc(Nc2ccc(OC)c(OCCC3CCN(C)C3)c2)n1` (stereo not shown) [Compound 503] was tested, and the IC50 was 1 to 10 µM.
`CNc1cc(C)nc(Nc2ccc(OC)c(OCCCN3CCCC3C)c2)n1` (stereo not shown) [Compound 504, N^2-(4-methoxy-3-(3-(2-methylpyrrolidin-1-yl)propoxy)phenyl)-N^4,6-dimethylpyrimidine-2,4-diamine] was tested, and the IC50 was 0.1 to 1 µM.
`CNc1cc(C)nc(Nc2ccc(OC)c(OCCCN3CC4CC4C3)c2)n1` (stereo not shown) [Compound 506] was tested, and the IC50 was 0.1 to 1 µM.
`COc1cnc(Nc2nccc3[nH]ccc23)cc1OCCCN1CC2CC2C1` (stereo not shown) [Compound 507] showed an IC50 of 0.1 to 1 µM.
With `CNc1cc(C)nc(Nc2ccc(OC)c(OCCC3CN(C)C3)c2)n1` [Compound 508] the IC50 was > 10 µM.
`CNc1cc(Nc2cc(OCCCN3CC4CC4C3)c(OC)cn2)nc(C)c1F` (stereo not shown) [Compound 509] showed an IC50 of 0.1 to 1 µM.
`CNc1cc(C)nc(Nc2ccc(OC)c(OCC3CN(C4CC4)C3)c2)n1` [Compound 510] was tested, and the IC50 was 0.1 to 1 µM.
With `CNc1cc(C)nc(Nc2cnc(OC)c(OC[C@@H]3CCN(C4CC4)C3)c2)n1` [Compound 512] the IC50 was < 0.1 µM.
For `CNc1cc(C)nc(Nc2cnc(OC)c(OCCCN3CC4CC4C3)c2)n1` (stereo not shown) [Compound 514], the IC50 was 0.1 to 1 µM.
`CCc1ncc(Nc2nc(C)cc(NC)n2)cc1OCCCN1CCCC1` [Compound 515] showed an IC50 of 1 to 10 µM.
`CNc1cc(C)nc(Nc2cnc(C3CC3)c(OCCCN3CCCC3)c2)n1` [Compound 516] was tested, and the IC50 was 1 to 10 µM.
`CNc1cc(C)nc(Nc2ccc(OC)c(OCC3CCCN(C4CC4)C3)c2)n1` (stereo not shown) [Compound 517a] was tested, and the IC50 was 0.1 to 1 µM.
`CNc1cc(C)nc(Nc2ccc(OC)c(OC[C@H]3CCCN(C4CC4)C3)c2)n1` [Compound 517b] gave an IC50 of 0.1 to 1 µM.
